This is an account of results in patent publication US7531320B2, “Modulation of β-catenin/TCF-activated transcription” (priority 2003, dated 2009).

For one assay, the system named is NFAT reporter construct. In words: NFAT reporter assay in stably transfected Jurkat cells. It counts as cell-based. As to the method:
FIG. 1. COMPOUND 1 inhibits β-catenin/TCF transcription. • A(i) and A(ii). Structures of COMPOUND 1, COMPOUND 2, COMPOUND 3, COMPOUND 4, and COMPOUND 5. • B(i) and B(ii). […] SW480 cells (10^5), (FIG. 1B(i)), were transfected with β-catenin/TCF luciferase construct. Cells were treated with COMPOUND 1 (1-64 μM). 24 hours post treatment lysates were prepared and subjected to dual luciferase assay. The data is represented in different form in FIG. 1B(ii). • C. COMPOUND 1 has no effect on NFAT reporter construct. Stably transfected Jurkat cells, right panel, with an NFAT reporter construct, were stimulated with PMA (10 ng/ml)/lonomycin (1 μg/ml), and treated with COMPOUND 1 (0.781-50 μM). 24 hours post treatment lysates were prepared and subjected to dual luciferase assay. All experiments were performed in duplicate and the values plotted as means +/−standard deviation. • D. CBP is the molecular target of COMPOUND 1. Nuclear extracts of SW480 cells were incubated with streptavidin-agarose beads coated with COMPOUND 2 (25 μM). Beads were washed 3 times and the eluted were subjected to gel electrophoresis and immunoblotting, with anti-CBP antibodies. […] The lysates were desalted using G-25 1 cc columns (Pharmacia) to remove the unbound ^14C-labeled-COMPOUND 1, and ^14C-labeled-COMPOUND 1 incorporation was measured.
For orientation: Reporter assays use an easily measured gene product as a stand-in for the process of interest.

The test system of a further assay is axin2. In words: Real Time RT-PCR in SW480 cells, axin2. It is filed as cell-based, human. The conditions noted are these: 25 μM; for ΔCT axin2: relative to β-actin. As to the method: The RNeasy Midi Kit (Qiagen) was used for RNA extraction and Real Time RT-PCR was performed according to the protocol provided with the SYBR Green PCR Master Mix Kit (Perkin Elmer Biosystems, Shelton, Conn.). The primers used for cyclin D1, axin2, hnkd, c-myc, c-jun, and fra-1 amplifications were: cyclin D1 forward primer:5′-[…]-CCTGCTG-3′ (SEQ ID NO: 32) reverse primer: 5′-[…]-3′ (SEQ ID NO: 33) leading to a product size of approximately 300 bp; axin2 forward primer: 5′-[…] GGAAA-CT-3′ (SEQ ID NO: 34) and reverse primer: 5′-[…]-GAGA-3′ (SEQ ID NO: 35); hnkd forward primer: 5′-[…] TTGCGT-3′ (SEQ ID NO: 36) and the reverse primer: 5′-[…] ACGT-3′ (SEQ ID NO: 37); c-myc forward primer: 5′-GAA-[…] CTGC-3′ (SEQ ID NO: 38) and reverse primer: 5′-[…]-G-3′ (SEQ ID NO: 39); c-jun forward primer: 5′-[…]-3′ (SEQ ID NO: 40) and reverse primer: 5′-[…]-3′ (SEQ ID NO: 41); fra-1 forward primer: 5′-ACC-[…]-[…]-3′ (SEQ ID NO: 42) and reverse primer: 5′-[…]-TT-3′ (SEQ ID NO: 43). β-actin was used for normalization. […]
1 μg of mRNA, for each time point, was subjected to Real Time RT-PCR. Expression level of endogenous cyclin D1, c-myc, fibronectin, hnkd, axin2, c-jun, and BMP-4 were measured relative to β-actin. Quantitation of The ΔCycle of Threshold (CT) values was determined by subtracting the average values of each set by the corresponding average values obtained for β-actin. […]
The cyclin D1 gene is inappropriately expressed in many different tumor types, and is known to be a direct target of the Wnt/β-catenin pathway (Shtutman et al., “The cyclin D1 gene is a target of the beta-catenin/LEF-1 pathway,” Proc. Natl. Acad. Sci. USA 96:5522-27 (1999); Tetsu et al., “Beta-catenin regulates expression of cyclin D1 in colon carcinoma cells,” Nature 398:422-26 (1999)). […] Expression level of endogenous cyclin D1, c-myc, fibronectin, hnkd, axin2, c-jun, and BMP-4 were measured relative to β-actin. Quantitation of The ΔCycle of Threshold (CT) values was determined by subtracting the average values of each set by the corresponding average values obtained for β-actin. […]
For orientation: Quantitative PCR measures a nucleic acid by following its amplification.

As for `O=C1C(Cc2ccc(O)cc2)N2C(=O)CCN(C(=O)NCc3ccccc3)C2CN1Cc1cccc2ccccc12` (centres unmarked) [COMPOUND 1], the “Effect on NFAT reporter construct” value with NFAT reporter construct (Jurkat cells, PMA/Ionomycin stimulated, 0.781-50 μM, 24 hours) is “no effect”. The “Selectivity versus other CBP-dependent reporters” value in the assay on NFAT reporter construct (including NFAT, CRE and AP-1 (CRE, AP-1 data not shown)) was “very good selectivity”. Also, the “mRNA axin2 (direction)” value with axin2 is reported as “↓”. Moreover, the “ΔCT axin2” value in the assay on axin2 (4 hours) worked out at 0.3; with axin2 (8 hours), 0.8.
